Here are results for nine compounds from patent US20040259926A1, “3-Aryloxy and 3-heteroaryloxy substituted benzo[b]thiophenes as therapeutic agents” (priority 2003, published 2004).

One data set deals with T1, PI3Kγ (recombinant p101/p110γ protein) (Homo sapiens, UniProt P48736).
T1 construct: HA; made in house; host or cells: Spodoptera frugiperda (Sf9) cells, baculovirus co-infection
T1 sequence (P48736 whole entry, species assumed): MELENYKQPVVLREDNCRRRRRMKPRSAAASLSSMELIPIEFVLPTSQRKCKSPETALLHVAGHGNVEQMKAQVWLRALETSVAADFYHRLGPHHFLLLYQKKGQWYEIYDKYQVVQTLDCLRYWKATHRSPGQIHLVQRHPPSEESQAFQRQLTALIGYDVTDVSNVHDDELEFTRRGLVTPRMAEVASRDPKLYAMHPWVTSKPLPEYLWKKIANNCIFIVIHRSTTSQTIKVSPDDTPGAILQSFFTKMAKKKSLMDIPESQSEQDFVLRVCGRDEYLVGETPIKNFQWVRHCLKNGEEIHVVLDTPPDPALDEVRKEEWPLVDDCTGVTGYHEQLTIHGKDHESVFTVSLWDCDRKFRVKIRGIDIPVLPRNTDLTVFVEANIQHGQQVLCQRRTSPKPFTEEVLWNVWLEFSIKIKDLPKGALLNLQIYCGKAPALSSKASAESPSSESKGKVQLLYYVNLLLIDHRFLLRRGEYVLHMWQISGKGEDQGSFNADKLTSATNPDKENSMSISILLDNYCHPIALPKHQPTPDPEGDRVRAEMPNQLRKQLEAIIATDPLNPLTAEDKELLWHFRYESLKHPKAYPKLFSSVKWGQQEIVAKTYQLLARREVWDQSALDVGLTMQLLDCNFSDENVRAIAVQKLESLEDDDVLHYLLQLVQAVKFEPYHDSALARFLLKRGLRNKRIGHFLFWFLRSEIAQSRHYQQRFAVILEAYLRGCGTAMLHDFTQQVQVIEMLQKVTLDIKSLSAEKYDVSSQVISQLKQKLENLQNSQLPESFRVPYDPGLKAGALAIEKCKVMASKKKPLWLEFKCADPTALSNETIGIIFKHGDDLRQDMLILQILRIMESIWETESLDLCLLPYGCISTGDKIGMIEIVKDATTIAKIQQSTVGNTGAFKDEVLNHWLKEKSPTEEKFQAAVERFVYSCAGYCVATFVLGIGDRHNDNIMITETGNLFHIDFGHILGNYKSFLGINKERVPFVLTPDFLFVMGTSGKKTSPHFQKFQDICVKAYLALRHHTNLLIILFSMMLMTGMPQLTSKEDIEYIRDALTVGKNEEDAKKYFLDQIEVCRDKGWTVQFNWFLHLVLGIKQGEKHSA
T1 sequence (Q8WYR1 whole entry partner, species assumed): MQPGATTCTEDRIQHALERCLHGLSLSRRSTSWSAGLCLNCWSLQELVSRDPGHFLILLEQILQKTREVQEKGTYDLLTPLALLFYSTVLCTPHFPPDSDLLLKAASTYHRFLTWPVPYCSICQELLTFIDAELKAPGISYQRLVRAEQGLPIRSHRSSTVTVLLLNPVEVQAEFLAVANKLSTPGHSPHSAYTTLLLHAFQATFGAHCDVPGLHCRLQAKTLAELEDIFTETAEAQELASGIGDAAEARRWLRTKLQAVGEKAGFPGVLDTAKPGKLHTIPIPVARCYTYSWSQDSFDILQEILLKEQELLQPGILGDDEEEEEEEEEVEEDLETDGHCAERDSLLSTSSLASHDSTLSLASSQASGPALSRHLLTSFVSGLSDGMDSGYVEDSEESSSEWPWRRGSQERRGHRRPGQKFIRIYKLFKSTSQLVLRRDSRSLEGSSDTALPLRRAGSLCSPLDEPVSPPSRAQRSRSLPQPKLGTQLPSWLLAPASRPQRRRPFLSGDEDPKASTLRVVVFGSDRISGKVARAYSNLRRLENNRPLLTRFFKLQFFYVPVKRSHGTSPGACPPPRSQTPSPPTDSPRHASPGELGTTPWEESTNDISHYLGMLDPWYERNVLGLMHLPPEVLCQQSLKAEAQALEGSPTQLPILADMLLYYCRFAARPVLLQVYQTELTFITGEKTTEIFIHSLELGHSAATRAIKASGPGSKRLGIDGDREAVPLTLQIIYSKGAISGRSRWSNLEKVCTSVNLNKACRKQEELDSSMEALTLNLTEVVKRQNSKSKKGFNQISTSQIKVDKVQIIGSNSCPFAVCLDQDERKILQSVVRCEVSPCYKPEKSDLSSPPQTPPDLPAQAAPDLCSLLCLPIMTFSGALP
Put plainly: PI3Kγ In Vitro Kinase Assay. In kind it is biochemical. The following applies: purified recombinant p101/p110γ with G protein β1/γ2 subunits; 20 μM ATP, [γ-32P-ATP]; 25 μM PIP2 lipid micelles; 20 minutes at room temperature. An outline of the steps: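 Baculovirus/Sf9-expressed p101/p110γ (~2.7 nM) with Gβ1/γ2 (~57.7 nM) in HEPES/NaCl/EGTA/DTT buffer; 20 μM ATP plus [γ-32P]ATP, micelles of 25 μM PIP2, 300 μM PE, 10 mM MgCl2. Reactions ran 20 minutes at room temperature; radiolabelled PIP3 captured on glass-fibre filters and counted for IC50.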
For orientation: IC50 means the midpoint of a concentration-inhibition curve. Regarding `COc1cc2c(Oc3ccc(C4CCCCC4)cc3)c(C(=O)N(C)c3nn[nH]n3)sc2cc1C` [Example K.2, 3-(4-Cyclohexyl-phenoxy)-5-methoxy-6-methyl-benzo[b]thiophene-2-carboxylic acid methyl-(2H-tetrazol-5-yl)-amide], the half-maximal inhibitory concentration (IC50) came out at 1610 nM.
The same measure, in the same setting: as for `CCCCc1ccc(Oc2c(C(=O)Nc3nn[nH]n3)sc3cc(C)c(OC)cc23)cc1` [Example B.13, 3-(4-Butyl-phenoxy)-5-methoxy-6-methyl-benzo[b]thiophene-2-carboxylic acid (2H-tetrazol-5-yl)-amide], the figure is 31 nM.
In the case of `CCCCCCOc1ccc(Oc2c(C(=O)Nc3nn[nH]n3)sc3cc(C)c(OC)cc23)cc1` [Example B.14, 3-(4-Hexyloxy-phenoxy)-5-methoxy-6-methyl-benzo[b]thiophene-2-carboxylic acid (2H-tetrazol-5-yl)-amide], the IC50 turned out to be 365 nM.
In the case of `Cc1cc2sc(C(=O)Nc3nn[nH]n3)c(Oc3ccc(C4CCCCC4)cc3)c2cc1OC(F)F` [Example H.2, 3-(4-Cyclohexyl-phenoxy)-5-difluoromethoxy-6-methyl-benzo[b]thiophene-2-carboxylic acid (2H-tetrazol-5-yl)-amide], the IC50 amounted to 230 nM.
The same measure, in the same setting: next, `COc1cc2sc(C(=O)Nc3nnn[nH]3)c(OCC(C)(C)c3ccccc3)c2cc1OC` [Example C.34, 5,6-Dimethoxy-3-(2-methyl-2-phenyl-propoxy)-benzo[b]thiophene-2-carboxylic acid (1H-tetrazol-5-yl)-amide]: 84 nM; `COc1cc2sc(C(=O)Nc3nnn[nH]3)c(OCCc3cccc4c3CCCC4)c2cc1OC` [Example C.21, 5,6-Dimethoxy-3-[2-(5,6,7,8-tetrahydro-naphthalen-1-yl)-ethoxy]-benzo[b]thiophene-2-carboxylic acid (1H-tetrazol-5-yl)-amide]: 300 nM; `COc1ccc2sc(C(=O)Nc3nn[nH]n3)c(Oc3cccc([N+](=O)[O-])c3)c2c1` [Example A.4, 5-Methoxy-3-(3-nitro-phenoxy)-benzo[b]thiophene-2-carboxylic acid (2H-tetrazol-5-yl)-amide]: 1360 nM.
In the case of `COc1cc2c(Oc3ccc(Cl)c(Cl)c3)c(C(=O)Nc3nn[nH]n3)sc2cc1C` [Example B.44, 3-(3,4-Dichloro-phenoxy)-5-methoxy-6-methyl-benzo[b]thiophene-2-carboxylic acid (2H-tetrazol-5-yl)-amide], the IC50 is 165 nM.

System in another data set: not given
Experiment: not given
Settings: not given
What is called melting point is the temperature, or range, at which the solid turns liquid. Take `COc1cc2c(Oc3ccc(C4CCCCC4)cc3)c(C(=O)N(C)c3nn[nH]n3)sc2cc1C` [Example K.2, 3-(4-Cyclohexyl-phenoxy)-5-methoxy-6-methyl-benzo[b]thiophene-2-carboxylic acid methyl-(2H-tetrazol-5-yl)-amide]: the melting point lay within 197 to 198 °C.
Same read-out and setting: next, `COc1cc2sc(C(=O)Nc3nnn[nH]3)c(OCc3ccc4ccccc4c3)c2cc1OC` [Example C.9, 5,6-Dimethoxy-3-(naphthalen-2-ylmethoxy)-benzo[b]thiophene-2-carboxylic acid (1H-tetrazol-5-yl)-amide]: 204 °C.
